# Measurements from US7279476B2, “Pyrazole-derived kinase inhibitors and uses thereof” (Vertex Pharmaceuticals Incorporated, priority 2001, dated 2007).
# Columns and labels:
# activated ERK2 = activated ERK2 (Homo sapiens, UniProt P28482); experiment: ERK2 inhibition spectrophotometric coupled-enzyme assay; type: biochemical; details: 10 nM activated ERK2, 65 μM ATP, 30° C., pH 7.5; read-out: ERK2 Inhibitory Activity (Ki class)
# Method: Compounds are assayed for the inhibition of ERK2 by a spectrophotometric coupled-enzyme assay (Fox et al (1998) Protein Sci 7, 2249). In this assay, a fixed concentration of activated ERK2 (10 nM) is incubated with various concentrations of the compound in DMSO (2.5%) for 10 min. at 30° C. in 0.1 M HEPES buffer, pH 7.5, containing 10 mM MgCl2, 2.5 mM phosphoenolpyruvate, 200 μM NADH, 150 μg/mL pyruvate kinase, 50 μg/mL lactate dehydrogenase, and 200 μM erktide peptide. The reaction is initiated by the addition of 65 μM ATP. The rate of decrease of absorbance at 340 nm is monitored, which indicates the extent of uninhibited enzyme present in the assay. The IC50 is evaluated from the rate data as a function of inhibitor concentration.
# The compound numbers correspond to the compound numbers in Tables 1 and 2.
# [1] = system: Colon cancer cells (HT-29 cell line); experiment: ERK inhibition cell proliferation assay (3H-thymidine uptake); type: cell-based; details: Homo sapiens, HT-29 cells, 3 days incubation
# Method: Compounds may be assayed for the inhibition of ERK2 by a cell proliferation assay. In this assay, a complete media is prepared by adding 10% fetal bovine serum and penicillin/streptomycin solution to RPMI 1640 medium (JRH Biosciences). Colon cancer cells (HT-29 cell line) are added to each of 84 wells of a 96 well plate at a seeding density of 10,000 cells/well/150 μL. The cells are allowed to attach to the plate by incubating at 37° C. for 2 hours. A solution of test compound is prepared in complete media by serial dilution to obtain the following concentrations: 20 μM, 6.7 μM, 2.2 μM, 0.74 μM, 0.25 μM, and 0.08 μM. The test compound solution (50 μL) is added to each of 72 cell-containing wells. To the 12 remaining cell-containing wells, only complete media (200 μL) is added to form a control group in order to measure maximal proliferation. To the remaining 12 empty wells, complete media is added to form a vehicle control group in order to measure background. The plates are incubated at 37° C. for 3 days. A stock solution of ^3H-thymidine (1 mCi/mL, New England Nuclear, Boston, Mass.) is diluted to 20 μCi/mL in RPMI medium then 20 μL of this solution is added to each well. The plates are further incubated at 37° C. for 8 hours then harvested and analyzed for ^3H-thymidine uptake using a liquid scintillation counter.
# AKT = AKT inhibition standard coupled enzyme assay; type: biochemical; details: screened at 30 μM compound, 45 nM AKT, 170 μM ATP; compounds with greater than 50% inhibition titrated
# Method: Compounds were screened for their ability to inhibit AKT using a standard coupled enzyme assay (Fox et al., Protein Sci., (1998) 7, 2249). Assays were carried out in a mixture of 100 mM HEPES 7.5, 10 mM MgCl2, 25 mM NaCl, 1 mM DTT and 1.5% DMSO. Final substrate concentrations in the assay were 170 μM ATP (Sigma Chemicals) and 200 μM peptide (RPRAATF, American Peptide, Sunnyvale, Calif.). Assays were carried out at 30° C. and 45 nM AKT. Final concentrations of the components of the coupled enzyme system were 2.5 mM phosphoenolpyruvate, 300 μM NADH, 30 μg/ML pyruvate kinase and 10 μg/ml lactate dehydrogenase.
# An assay stock buffer solution was prepared containing all of the reagents listed above, with the exception of AKT, DTT, and the test compound of interest. 56 μl of the stock solution was placed in a 384 well plate followed by addition of 1 μl of 2 mM DMSO stock containing the test compound (final compound concentration 30 μM). The plate was preincubated for about 10 minutes at 30° C. and the reaction initiated by addition of 10 μl of enzyme (final concentration 45 nM) and 1 mM DTT. Rates of reaction were obtained using a BioRad Ultramark plate reader (Hercules, Calif.) over a 5 minute read time at 30° C.
# Chain of activated ERK2 (P28482 whole entry): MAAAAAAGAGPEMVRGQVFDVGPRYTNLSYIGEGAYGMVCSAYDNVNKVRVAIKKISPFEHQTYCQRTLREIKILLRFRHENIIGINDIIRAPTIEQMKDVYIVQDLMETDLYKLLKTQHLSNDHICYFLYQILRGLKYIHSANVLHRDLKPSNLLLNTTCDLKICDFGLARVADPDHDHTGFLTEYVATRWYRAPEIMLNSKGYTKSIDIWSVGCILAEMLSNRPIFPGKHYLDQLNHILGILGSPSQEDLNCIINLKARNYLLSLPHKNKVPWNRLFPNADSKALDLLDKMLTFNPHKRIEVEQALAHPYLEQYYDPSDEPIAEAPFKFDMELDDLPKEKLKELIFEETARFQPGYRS
Structure (SMILES),Ki (activated ERK2),IC50 [1],inhibit AKT (AKT)
CC(=O)N1CCC[C@@H]1C(=O)NCc1ccc(-c2cn[nH]c2-c2c[nH]c(C(=O)NC(CO)c3ccc(F)c(Cl)c3)c2)cc1Cl (some centres unmarked) [II-4],< 1 µM,–,–
O=C(CCCCCNc1ccc([N+](=O)[O-])c2nonc12)NCc1ccc(-c2cn[nH]c2-c2c[nH]c(C(=O)N[C@H](CO)c3ccc(F)c(Cl)c3)c2)cc1Cl [II-5],< 1 µM,–,–
CC(=O)N1CCC[C@H]1C(=O)NCc1ccc(-c2cn[nH]c2-c2c[nH]c(C(=O)NC(CO)c3ccc(F)c(Cl)c3)c2)cc1Cl (some centres unmarked) [II-3],< 1 µM,–,–
O=C(NCc1ccccc1)c1cc(-c2[nH]ncc2-c2cccc(CN3CCOCC3)c2)c[nH]1 [II-10],> 5 µM,–,–
"O=C(N[C@H](CO)c1ccc(F)c(Cl)c1)c1cc(-c2n[nH]cc2-c2ccc(CN3CCOCC3)c(Cl)c2)c[nH]1 [II-6, 4-[4-(3-Chloro-4-morpholin-4-ylmethyl-phenyl)-1H-pyrazol-3-yl]-1H-pyrrole-2-carboxylic acid [1-(3-chloro-4-fluoro-phenyl)-2-hydroxy-ethyl]-amide]",< 1 µM,< 10 µM,inhibit AKT
O=C(N[C@H](CO)c1ccccc1)c1cc(-c2[nH]ncc2-c2ccc(C(=O)N3CCOCC3)c(Cl)c2)c[nH]1 [II-1],< 1 µM,< 10 µM,–
O=C(NCc1ccc(-c2cn[nH]c2-c2c[nH]c(C(=O)N[C@H](CO)c3ccc(F)c(Cl)c3)c2)cc1Cl)O[C@H]1CCOC1 [II-7],< 1 µM,–,–
O=C(N[C@H](CO)c1ccc(F)c(Cl)c1)c1cc(-c2n[nH]cc2-c2ccc(CNCc3cc[n+]([O-])cc3)c(Cl)c2)c[nH]1 [II-8],< 1 µM,–,inhibit AKT
"CC(=O)N1C[C@H](O)C[C@H]1C(=O)NCc1ccc(-c2c[nH]nc2-c2c[nH]c(C(=O)N[C@H](CO)c3ccc(F)c(Cl)c3)c2)cc1Cl (stereo in doubt) [II-2, 4-[4-(4-{[(1-Acetyl-4-hydroxy-pyrrolidine-2-carbonyl)-amino]-methyl}-3-chloro-phenyl)-1H-pyrazol-3-yl]-1H-pyrrole-2-carboxylic acid [1-(3-chloro-4-fluoro-phenyl)-2-hydroxy-ethyl]-amide]",< 1 µM,–,–
"O=C(N[C@H](CO)c1ccc(F)c(Cl)c1)c1cc(-c2n[nH]cc2-c2ccc(CN(Cc3cc[n+]([O-])cc3)Cc3cc[n+](O)cc3)c(Cl)c2)c[nH]1 [II-9, 4-[4-(4-{[Bis-(1-oxy-pyridin-4-ylmethyl)-amino]-methyl}-3-chloro-phenyl)-1H-pyrazol-3-yl]-1H-pyrrole-2-carboxylic acid [1-(3-chloro-4-fluoro-phenyl)-2-hydroxy-ethyl]-amide]",< 1 µM,–,–
